Measurements published in US9079854B2 (priority 2007, dated 2015).
Where two headings read alike, the source gives them in different places.

Key:
[1] = target: T1, human CB2 (hCB2) receptor (Homo sapiens, UniProt P34972); experiment: CB2 binding assay, competitive binding of [3H]WIN 55212-2; details: for % Inhibition of Control Specific Binding / % of Control Specific Binding 1st / % of Control Specific Binding 2nd / % of Control Specific Binding Mean: CB2, Test Concentration 1.0E−05 (MD); for % of Control Specific Binding 1st: 1st determination; for % of Control Specific Binding 2nd: 2nd determination; for inhibition at 10 µM / inhibition at 1 µM: specific binding of [3H]-WIN55212-2; for inhibition at 1 µM: CHO membranes
T1 construct: expressed in transfected cells; host or cells: CHO (Chinese hamster ovary) cells, membranes
T1 sequence (P34972 whole entry): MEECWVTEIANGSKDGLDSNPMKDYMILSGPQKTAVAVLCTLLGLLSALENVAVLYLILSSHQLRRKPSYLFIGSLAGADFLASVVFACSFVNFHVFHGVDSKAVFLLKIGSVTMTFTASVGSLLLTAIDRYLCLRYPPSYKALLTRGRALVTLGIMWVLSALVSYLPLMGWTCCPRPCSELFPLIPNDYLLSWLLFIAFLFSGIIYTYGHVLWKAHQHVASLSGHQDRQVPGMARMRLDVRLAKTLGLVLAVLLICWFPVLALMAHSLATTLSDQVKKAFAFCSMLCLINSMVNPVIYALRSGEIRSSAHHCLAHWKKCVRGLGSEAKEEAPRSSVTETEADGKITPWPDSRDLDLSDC
Experimental: Cell membrane homogenates (15 μg protein) are incubated for 120 min at 37° C. with 0.8 nM [^3H]WIN 55212-2 (the reference standard [Munro, 1993 #1321]) in the absence or presence of the test compound in a buffer containing 50 mM HEPES/Tris HCL (pH 7.4), 5 mM MgCl2, 2.5 mM EGTA, and 0.1% BSA. Nonspecific binding is determined in the presence of 10 μM WIN 55212-2. After being incubated, the samples are filtered rapidly under vacuum through glass fiber filters (GF/B; Packard) presoaked with 0.3% PEI and rinsed several times with ice-cold buffer containing 50 mM Tris HCl (pH 7.4) and 0.5% BSA using a 96-sample cell harvester (Unifilter; Packard). The filters are dried then counted for radioactivity in a scintillation counter (Topcount; Packard) using a scintillation cocktail (Microscint 0; Packard). The results are expressed as a percentage of the inhibition of the control radioligand-specific binding. The reference standard compounds are tested in each experiment at several concentrations to obtain a competition curve from which its IC50 is calculated.
(§1) […] [^3H]-CP55940 at a concentration of 0.5 nM and [^3H]-WIN55212 at a concentration of 0.8 nM were used as radioligands for hCB1 and hCB2 assays, respectively. The results are expressed as a percent inhibition of control specific binding. Compounds which displaced the radioligand by more than 50% for either hCB1 or hCB2 receptors were arbitrary chosen for functional activity determination.

[2] = target: T2, human CB1 (hCB1) receptor (Homo sapiens, UniProt P21554); experiment: CB1 binding assay, competitive binding of [3H]CP 55940; details: for % Inhibition of Control Specific Binding / % of Control Specific Binding 1st / % of Control Specific Binding 2nd / % of Control Specific Binding Mean: CB1, Test Concentration 1.0E−05 (MD); for % of Control Specific Binding 1st: 1st determination; for % of Control Specific Binding 2nd: 2nd determination; for inhibition at 10 µM / inhibition at 1 µM: specific binding of [3H]-CP55940; for inhibition at 1 µM: CHO membranes
T2 construct: expressed in transfected cells; host or cells: CHO (Chinese hamster ovary) cells, membranes
T2 sequence (P21554 whole entry): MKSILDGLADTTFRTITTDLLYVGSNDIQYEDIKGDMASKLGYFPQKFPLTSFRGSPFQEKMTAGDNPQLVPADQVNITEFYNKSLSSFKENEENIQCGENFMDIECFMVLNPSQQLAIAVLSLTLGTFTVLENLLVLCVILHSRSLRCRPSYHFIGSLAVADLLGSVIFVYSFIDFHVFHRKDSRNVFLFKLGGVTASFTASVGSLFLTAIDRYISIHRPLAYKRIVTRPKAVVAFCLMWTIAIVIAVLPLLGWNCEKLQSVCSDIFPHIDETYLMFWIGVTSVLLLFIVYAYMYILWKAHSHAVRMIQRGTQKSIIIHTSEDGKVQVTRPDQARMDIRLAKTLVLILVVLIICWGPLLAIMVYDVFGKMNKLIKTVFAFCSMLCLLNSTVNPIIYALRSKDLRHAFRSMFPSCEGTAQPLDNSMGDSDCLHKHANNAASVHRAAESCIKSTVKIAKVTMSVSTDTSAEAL
Experimental: Cell membrane homogenates (25 μg protein) are incubated for 120 min at 37° C. with 0.5 nM [^3H]CP 55940 (the reference standard [Rinaldi-Carmona, 1996 #1320]) in the absence or presence of the test compound in a buffer containing 50 mM Tris HCl (pH 7.4), 5 mM MgCl2, 2.5 mM EDTA, and 0.3% bovine serum albumin (BSA). […]
as §1

[3] = at 10 μM, read-out: % inhibition hCB2 receptor
[4] = read-out: % inhibition hCB2 receptor, at 10 μM
[5] = read-out: % inhibition hCB2 receptor, at 1 μM

Row | Compound | % Inhibition of Control Specific Binding [1] | % of Control Specific Binding 1st [1] | % of Control Specific Binding 2nd [1] | % of Control Specific Binding Mean [1] | inhibition at 10 µM [1, 3] | % Inhibition of Control Specific Binding [2] | % of Control Specific Binding 1st [2] | % of Control Specific Binding 2nd [2] | % of Control Specific Binding Mean [2] | inhibition at 10 µM [2] | inhibition at 10 µM [1, 4] | inhibition at 1 µM [1, 5] | inhibition at 1 µM [2] | inhibition at 1 µM ([1]; at 1 μM, read-out: % inhibition hCB2 receptor)
1 | O=C1/C(=N\NS(=O)(=O)c2ccccc2)c2ccccc2N1CCC1CCCCC1 [Example 8] | 9% | 89.2% | 93.3% | 91.2% | < 40% | 16% | 77.2% | 90% | 83.6% | < 40% | – | – | – | –
2 | CCCCCCN1C(=O)/C(=N\NC(=O)Nc2ccccc2)c2ccccc21 [Example 4, Phenyl carbamoyl[1-n-hexyl-2-oxo-1,2-dihydro-indol-3-ylidene]-hydrazide] | −8% | 105.7% | 109.7% | 107.7% | – | 37% | 64.3% | 61.4% | 62.9% | < 40% | < 40% | – | – | –
3 | CCCCCCN1C(=O)/C(=N\NC(=O)c2ccc(Cl)cc2)c2ccccc21 [Example 13, 4-chloro-N′-[(3Z)-1-hexyl-2-oxo-1,2-dihydro-3H-indol-3-ylidene]benzohydrazide] | – | – | – | – | – | – | – | – | – | – | – | 32.7 ± 5.3% | 46.6 ± 4.3% | –
4 | CCCCCCN1C(=O)/C(=N\NC(=O)c2ccc3ccccc3c2)c2ccccc21 [Example 16, N′-[(3Z)-1-hexyl-2-oxo-1,2-dihydro-3H-indol-3-ylidene]-2-naphthohydrazide] | – | – | – | – | – | – | – | – | – | – | – | < 30% | < 30% | –
5 | CCCCCN1C(=O)/C(=N\NC(=O)c2ccccc2)c2cc(I)ccc21 [Example 35, N′-[(3Z)-5-iodo-2-oxo-1-pentyl-1,2-dihydro-3H-indol-3-ylidene]benzohydrazide] | – | – | – | – | – | – | – | – | – | – | – | 10 ± 0.2% | 25 ± 0.2% | –
6 | CCCCCCN1C(=O)/C(=N\NS(=O)(=O)c2ccccc2)c2ccccc21 [Example 9, Phenyl sulfonyl[1-n-hexyl-2-oxo-1,2-dihydro-indol-3-ylidene]-hydrazide] | −14% | 126.5% | 100.6% | 113.5% | < 40% | 8% | 87.7% | 96.1% | 91.9% | < 40% | – | – | – | –
7 | CCCCCCN1C(=O)/C(=N\NC(=O)c2ccccc2)c2cc(OC)ccc21 [Example 32, N′-[(3Z)-1-hexyl-5-methoxy-2-oxo-1,2-dihydro-3H-indol-3-ylidene]benzohydrazide] | – | – | – | – | – | – | – | – | – | – | – | 17 ± 1.2% | 26 ± 3.1% | –
8 | CCCCCCN1C(=O)/C(=N\NC(=S)Nc2ccccc2)c2ccccc21 [Example 2, Phenyl thiocarbamoyl[1-n-hexyl-2-oxo-1,2-dihydro-indol-3-ylidene]-hydrazide] | 38% | 59.8% | 64.7% | 62.3% | 37.7 ± 2.5% | – | 45.8% | 56.1% | 51% | 49 ± 5.2% | – | – | – | –
9 | CCCCCCN1C(=O)/C(=N\NC(=O)c2ccccc2)c2cc(Cl)ccc21 [Example 34, N′-[(3Z)-5-chloro-1-hexyl-2-oxo-1,2-dihydro-3H-indol-3-ylidene]benzohydrazide] | – | – | – | – | – | – | – | – | – | – | – | 6 ± 1.4% | 9 ± 1.4% | –
10 | O=C(N/N=C1\C(=O)N(CCN2C(=O)c3ccccc3C2=O)c2ccccc21)c1ccccc1 [Example 27, N′-{[3Z]-1-[2-(1,3-dioxo-1,3-dihydro-2H-isoindol-2-yl)ethyl]-2-oxo-1,2-dihydro-3H-indol-3-ylidene}benzohydrazide] | – | – | – | – | – | – | – | – | – | – | – | – | 3 ± 4.1% | 3 ± 3.2%
11 | O=C1/C(=N\NC(=S)Nc2ccccc2)c2ccccc2N1CCC1CCCCC1 [Example 1, Phenyl thiocarbamoyl[1-(2-cyclohexyl-ethyl)-2-oxo-1,2-dihydro-indol-3-ylidene]-hydrazide] | 15% | 83.3% | 87.6% | 85.4% | < 40% | 36% | 68.6% | 59.6% | 64.1% | < 40% | – | – | – | –
12 | O=C(N/N=C1\C(=O)N(CCC2CCCCC2)c2ccccc21)Nc1ccccc1 [Example 3] | −3% | 98.6% | 107.1% | 102.8% | – | 34% | 54.1% | 78.5% | 66.3% | < 40% | < 40% | – | – | –
13 | CCCCCCN1C(=O)/C(=N\NC(=O)c2ccccc2)c2cc(C)ccc21 [Example 31, N′-[(3Z)-1-hexyl-5-methyl-2-oxo-1,2-dihydro-3H-indol-3-ylidene]benzohydrazide] | – | – | – | – | – | – | – | – | – | – | – | 1 ± 2.7% | 22 ± 0.9% | –
14 | CCCCCCN1C(=O)/C(=N\NC(=O)CCCCC)c2ccccc21 [Example 12, N′-[(3Z)-1-hexyl-2-oxo-1,2-dihydro-3H-indol-3-ylidene]hexanohydrazide] | – | – | – | – | – | – | – | – | – | – | – | 36.6 ± 8.8% | 45.2 ± 9.5% | –
15 | CCCCCCCCCCCCN1C(=O)/C(=N\NC(=O)c2ccccc2)c2ccccc21 [Example 24, N′-[(3Z)-1-(1-dodecyl)-2-oxo-1,2-dihydro-3H-indol-3-ylidene]benzohydrazide] | – | – | – | – | – | – | – | – | – | – | – | 24.3 ± 4.1% | 23.8 ± 4.5% | –
16 | CCCCCCN1C(=O)/C(=N\NC(=O)c2cc3ccccc3s2)c2ccccc21 [Example 18, N′-[(3Z)-1-hexyl-2-oxo-1,2-dihydro-3H-indol-3-ylidene]-1-benzothiophene-2-carbohydrazide] | – | – | – | – | – | – | – | – | – | – | – | < 30% | < 30% | –
